Experiments:
ENC (ATCC NDM-1) = assay: MIC determination; type: cell-based, Enterobacter cloacae; details: CAMH broth, 20 μM Apo-Transferrin, 37° C., 18 hours
Procedure: (§1) Sterile technique was used throughout these experiments. Suspensions of organisms were removed from storage (−80° C.) and partially thawed. Partially thawed organisms (1 μL) were inoculated into 3 mL sterile LB Broth in a sterile culture tube and capped, then cultured at 37° C. with shaking for 4-5 hours until the optical density at 600 nm (OD600) was greater than 0.1 on a single beam spectrophotometer.
(§2) The concentration of organisms was adjusted to 0.08-0.1 OD600 (0.5 McFarland units) by dilution with sterile cation-adjusted Meuller-Hinton (CAMH) broth. The suspensions were used within 30 minutes of preparation.
(§3) A stock solution was made of each test compound by measuring 6.4 mg of the compound on an analytical balance and dissolving it in DMSO (1 mL) to get a transparent solution. The solutions were stored at −20° C. and thawed prior to use.
(§4) Sterile CAMH broth (200 μL) containing 20 μM Apo-Transferrin was pipetted into the first row of 8 columns of a sterile, round-bottomed, transparent, 96-well microplate using an 8-channel pipette equipped with sterile tips. One hundred μL was pipetted into the wells of the remaining 11 rows.
(§5) With an 8-channel pipette equipped with sterile tips, 100 μL of the first row solution was transferred to the second row and mixed. The process was repeated for the second to third rows and continued through row 11. One hundred μL from row 11 was removed and discarded so that all 12 rows contained 100 μL. Row 12 contained no compound and rows 1-11 contained 64, 32, 16, 8, 4, 2, 1, 0.5, 0.25, 0.125, […] of a given compound.
(§6) Inoculant suspensions (0.5 μL) were added to the 12 wells of each column. The plates were then covered and incubated at 37° C. overnight for 18 hours.
(§7) For each organism the MIC was determined by identifying the transparent well with the lowest test compound concentration.

KP(ATCC SHV-18) = assay: MIC determination; type: cell-based, Klebsiella pneumoniae; details: CAMH broth, 20 μM Apo-Transferrin, 37° C., 18 hours
Method in brief: (§8)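 Using an iron-depleting medium (CAMH plus 20 μM apo-transferrin), organisms at 0.5 McFarland faced compound from 64 μg/mL downward in twofold steps. Readout: visual, after 18 h at 37 °C.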

EC(KB1 CTX-M-14) = assay: MIC determination; type: cell-based, Escherichia coli; details: Escherichia coli, 18 h, read-out: Minimum Inhibitory Concentrations, EC(KB1 CTX-M-14)
Method in brief: as §8

EC(KB2 CTX-M-14) = assay: MIC determination; type: cell-based, Escherichia coli; details: Escherichia coli, 18 h, read-out: Minimum Inhibitory Concentrations, EC(KB2 CTX-M-14)
Method in brief: as §8

EC (Escherichia coli) = assay: MIC determination; type: cell-based; details: 20 μM Apo-Transferrin, 37° C., 18 hours; for MIC: Escherichia coli, first EC column of Table 3-1, CAMH broth, read-out: Minimum Inhibitory Concentrations, EC; for Minimum Inhibitory Concentrations, EC: Table 3-1, CAMH broth
Method in brief: as §8

[1] = system: ENC (Enterobacter cloacae); assay: MIC determination; type: cell-based; details: CAMH broth, 20 μM Apo-Transferrin, 37° C., 18 hours
Method in brief: as §8

[2] = system: A. baumannii (JMI OXA-58); assay: MIC determination; type: cell-based, Acinetobacter baumannii; details: Acinetobacter baumannii, class D carbapenemase producer, CAMH broth, 20 μM Apo-Transferrin, 37° C., 18 hours, read-out: Minimum Inhibitory Concentrations, A. baumannii (JMI OXA-58)
Procedure: as §1, §2, §3, §4, §5, §6, §7

A. baumannii = assay: MIC determination; type: cell-based, Acinetobacter baumannii; details: for MIC: Acinetobacter baumannii, A. baumannii, CAMH broth, 20 μM Apo-Transferrin, 37° C., 18 hours, read-out: Minimum Inhibitory Concentrations, A. baumannii; for MICs for an Acinetobacter baumannii strain, in words: review of Table 2
Procedure: as §1, §2, §3, §4, §5, §6, §7

PM (RR -1) = assay: MIC determination; type: cell-based, Proteus mirabilis; details: CAMH broth, 20 μM Apo-Transferrin, 37° C., 18 hours
Procedure: as §1, §2, §3, §4, §5, §6, §7

[3] = system: KOXY (Klebsiella oxytoca); assay: MIC determination; type: cell-based; details: Klebsiella oxytoca, CAMH broth, 20 μM Apo-Transferrin, 37° C., 18 hours, read-out: Minimum Inhibitory Concentrations, KOXY
Method in brief: as §8

[4] = system: KP (Klebsiella pneumoniae); assay: MIC determination; type: cell-based; details: 20 μM Apo-Transferrin, 37° C., 18 hours
Method in brief: as §8

EA (URMC -3) = assay: MIC determination; type: cell-based; details: CAMH broth, 20 μM Apo-Transferrin, 37° C., 18 hours
Procedure: as §1, §2, §3, §4
(§9) To each well of the first row was pipetted 2.0 μL of the 6.4 mg/mL stock test compound stock solution to give 1:100 dilutions and a final concentration of 64 μg/mL and mixed.
as §5, §6, §7

various enteric bacteria = assay: MIC determination, summary in text; type: cell-based; details: review of Tables 3-1 to 3-6
Procedure: as §1, §2, §3, §4, §9, §5, §6, §7

[5] = system: various Pseudomonas strains; assay: MIC determination, summary in text; type: cell-based, Pseudomonas aeruginosa; details: review of Tables 1-1 and 1-2
Procedure: as §1, §2, §3, §4, §5, §6, §7

[6] = first KP column of Table 3-1, CAMH broth
[7] = second KP column of Table 3-1, CAMH broth

SMILES | Mimimum Inhibitory Concentrations, ENC (ATCC NDM-1) (ENC (ATCC NDM-1)) [microgram/mL] | Minimum Inhibitory Concentrations, KP(ATCC SHV-18) (KP(ATCC SHV-18)) [microgram/mL] | MIC (EC(KB1 CTX-M-14)) [µg/mL] | MIC (EC(KB2 CTX-M-14)) [µg/mL] | MIC (EC (Escherichia coli)) [µg/mL] | Minimum Inhibitory Concentrations, EC (EC (Escherichia coli)) [microgram/mL] | Mimimum Inhibitory Concentrations, ENC [1] [microgram/mL] | MIC [2] [µg/mL] | MIC (A. baumannii) [µg/mL] | Mimimum Inhibitory Concentrations, PM (RR -1) (PM (RR -1)) [microgram/mL] | MIC [3] [µg/mL] | Minimum Inhibitory Concentrations, KP [4, 6] [microgram/mL] | Minimum Inhibitory Concentrations, KP [4, 7] [microgram/mL] | Mimimum Inhibitory Concentrations, EA (URMC -3) (EA (URMC -3)) [microgram/mL] | MICs for various enteric bacteria, in words (various enteric bacteria) | MICs for various Pseudomonas strains, in words [5] | MICs for an Acinetobacter baumannii strain, in words (A. baumannii)
C#CC[N+]1(Cc2ccc(C=CC3=C(C(=O)O)N4C(=O)[C@@H](NC(=O)/C(=N\OC(C)(C)C(=O)O)c5csc(N)n5)[C@H]4SC3)cc2)CCc2cc(O)c(O)cc2C1 (mixture of isomers) [Compound 446, 2-(4-((E/Z)-2-((6R,7R)-7-((Z)-2-(2-aminothiazol-4-yl)-2-(((2-carboxypropan-2-yl)oxy)imino)acetamido)-2-carboxy-8-oxo-5-thia-1-azabicyclo[4.2.0]oct-2-en-3-yl)vinyl)benzyl)-6,7-dihydroxy-2-(prop-2-yn-1-yl)-1,2,3,4-tetrahydroisoquinolin-2-ium] | >64 | 1 | 2 | 8 | 0.5 | 0.5 | 4 | > 64 | 2 | – | – | – | – | – | – | – | –
CC(C)(O/N=C(\C(=O)N[C@@H]1C(=O)N2C(C(=O)O)=C(C=Cc3ccc(C[N+]4(C)CCc5c(Cl)c(O)c(O)c(Cl)c5C4)cc3)CS[C@H]12)c1csc(N)n1)C(=O)O (mixture of isomers) [Compound 429, 2-(4-((E/Z)-2-((6R,7R)-7-((Z)-2-(2-aminothiazol-4-yl)-2-(((2-carboxypropan-2-yl)oxy)imino)acetamido)-2-carboxy-8-oxo-5-thia-1-azabicyclo[4.2.0]oct-2-en-3-yl)vinyl)benzyl)-5,8 dichloro-6,7-dihydroxy-2-methyl-1,2,3,4-tetrahydroisoquinolin-2-ium] | >64 | – | – | 1 | – | – | – | > 64 | 2 | ≤0.06 | 0.5 | 1 | 1 | 2 | – | – | –
CC(C)(O/N=C(\C(=O)N[C@@H]1C(=O)N2C(C(=O)O)=C(C=Cc3ccc(C[N+]4(C)Cc5c(Cl)c(O)c(O)c(Cl)c5C4)cc3)CS[C@H]12)c1csc(N)n1)C(=O)O (mixture of isomers) [Compound 431, 2-(4-((E/Z)-2-((6R,7R)-7-((Z)-2-(2-aminothiazol-4-yl)-2-(((2-carboxypropan-2-yl)oxy)imino)acetamido)-2-carboxy-8-oxo-5-thia-1-azabicyclo[4.2.0]oct-2-en-3-yl)vinyl)benzyl)-4,7-dichloro-5,6-dihydroxy-2-methylisoindolin-2-ium] | >64 | – | – | – | 0.5 | 0.5 | – | > 64 | 1 | ≤0.06 | 0.13 | 0.13 | 0.13 | 1 | low microgram/mL MICs | low microgram/mL MICs | low microgram/mL MICs
CC(C)(O/N=C(\C(=O)N[C@@H]1C(=O)N2C(C(=O)O)=C(C=Cc3ccc(C[N+]4(C)CCc5ccc(O)c(O)c5C4)cc3)CS[C@H]12)c1csc(N)n1)C(=O)O (mixture of isomers) [Compound 442, 2-(4-((E/Z)-2-((6R,7R)-7-((Z)-2-(2-aminothiazol-4-yl)-2-(((2-carboxypropan-2-yl)oxy)imino)acetamido)-2-carboxy-8-oxo-5-thia-1-azabicyclo[4.2.0]oct-2-en-3 yl)vinyl)benzyl)-7,8-dihydroxy-2-methyl-1,2,3,4-tetrahydroisoquinolin-2-ium] | >64 | 0.5 | 1 | – | 0.25 | 0.25 | 8 | > 64 | 1 | ≤0.06 | – | – | – | 1 | – | – | low microgram/mL MICs
CC(C)(O/N=C(\C(=O)N[C@@H]1C(=O)N2C(C(=O)O)=C(C=Cc3ccc(C[N+]4(C)Cc5cc(O)c(O)c(Cl)c5C4)cc3)CS[C@H]12)c1csc(N)n1)C(=O)O (mixture of isomers) [Compound 432, 2-(4-((E/Z)-2-((6R,7R)-7-((Z)-2-(2-aminothiazol-4-yl)-2-(((2-carboxypropan-2-yl)oxy)imino)acetamido)-2-carboxy-8-oxo-5-thia-1-azabicyclo[4.2.0]oct-2-en-3-yl)vinyl)benzyl)-4-chloro-5,6-dihydroxy-2-methylisoindolin-2-ium] | >64 | – | – | – | 0.25 | 0.25 | – | > 64 | 1 | ≤0.06 | 0.5 | 1 | 1 | 0.5 | low microgram/mL MICs | – | low microgram/mL MICs
